Measured values reported in paper PMC5862616 (Oncotarget, 2018).

What was measured:
[1] = biological target: TEK (TIE2) (Homo sapiens, UniProt Q02763); assay: scanMAX kinase panel
[2] = biological target: VEGFR2 (Homo sapiens, UniProt P35968); assay: scanMAX kinase panel
[3] = biological target: MST1R (Homo sapiens, UniProt Q04912); assay: scanMAX kinase panel
[4] = tested on: MKNK1/2 (p-eIF4E S209) in KM-12 cells; assay: Western blot of p-eIF4E S209 in KM-12 cells; format: cell-based; conditions: KM-12 cells, 2 hours, western blot; for p-eIF4E reduction (MKNK1/2 inhibition, in words): b12: 100, 500, 1000 nM
Protocol: 20 μg NTRK1 fusion confirmation
T20 (ThermoScientific, Rockford, IL) for 30 minutes. MiniPrep cat# R2051 following manufacturer ’s protocol. […]
(1:2000) (Sigma-Aldrich), HRP-conjugated mouse or primers. The primer sequences are TPM3_Ex3B_F5:
Chalfont, UK). All western blots were developed using Ex12_R5: […]. PCR was […]

[5] = biological target: T1, MERTK (Homo sapiens, UniProt Q12866); assay: scanMAX kinase panel
T1 sequence (Q12866 21-999): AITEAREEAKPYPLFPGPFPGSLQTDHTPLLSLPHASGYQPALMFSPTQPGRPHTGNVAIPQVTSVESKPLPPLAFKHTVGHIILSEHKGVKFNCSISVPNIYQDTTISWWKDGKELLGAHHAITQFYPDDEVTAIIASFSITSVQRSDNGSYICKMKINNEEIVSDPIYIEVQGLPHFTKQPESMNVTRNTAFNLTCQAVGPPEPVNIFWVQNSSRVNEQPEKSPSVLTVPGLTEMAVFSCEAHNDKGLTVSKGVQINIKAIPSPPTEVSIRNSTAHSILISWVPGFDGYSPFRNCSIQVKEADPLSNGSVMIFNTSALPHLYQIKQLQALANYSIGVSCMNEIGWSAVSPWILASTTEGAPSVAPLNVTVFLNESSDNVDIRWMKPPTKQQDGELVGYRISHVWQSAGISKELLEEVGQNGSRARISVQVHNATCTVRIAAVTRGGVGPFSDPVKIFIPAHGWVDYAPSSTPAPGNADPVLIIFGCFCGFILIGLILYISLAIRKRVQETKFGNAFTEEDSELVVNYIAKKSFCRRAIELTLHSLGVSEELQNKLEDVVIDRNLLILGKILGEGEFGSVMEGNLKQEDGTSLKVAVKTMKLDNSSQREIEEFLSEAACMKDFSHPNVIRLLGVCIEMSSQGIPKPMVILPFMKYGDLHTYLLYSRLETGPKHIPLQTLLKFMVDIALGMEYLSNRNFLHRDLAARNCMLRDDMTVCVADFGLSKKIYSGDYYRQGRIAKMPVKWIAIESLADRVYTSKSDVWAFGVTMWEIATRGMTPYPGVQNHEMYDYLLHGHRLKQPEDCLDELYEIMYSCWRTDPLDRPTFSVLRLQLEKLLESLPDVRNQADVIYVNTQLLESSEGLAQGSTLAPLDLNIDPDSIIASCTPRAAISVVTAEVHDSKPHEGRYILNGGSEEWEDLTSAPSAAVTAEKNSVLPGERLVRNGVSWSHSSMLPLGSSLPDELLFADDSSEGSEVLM

[6] = biological target: T2, TYRO3 (Homo sapiens, UniProt Q06418); assay: scanMAX kinase panel
T2 sequence (Q06418 41-890): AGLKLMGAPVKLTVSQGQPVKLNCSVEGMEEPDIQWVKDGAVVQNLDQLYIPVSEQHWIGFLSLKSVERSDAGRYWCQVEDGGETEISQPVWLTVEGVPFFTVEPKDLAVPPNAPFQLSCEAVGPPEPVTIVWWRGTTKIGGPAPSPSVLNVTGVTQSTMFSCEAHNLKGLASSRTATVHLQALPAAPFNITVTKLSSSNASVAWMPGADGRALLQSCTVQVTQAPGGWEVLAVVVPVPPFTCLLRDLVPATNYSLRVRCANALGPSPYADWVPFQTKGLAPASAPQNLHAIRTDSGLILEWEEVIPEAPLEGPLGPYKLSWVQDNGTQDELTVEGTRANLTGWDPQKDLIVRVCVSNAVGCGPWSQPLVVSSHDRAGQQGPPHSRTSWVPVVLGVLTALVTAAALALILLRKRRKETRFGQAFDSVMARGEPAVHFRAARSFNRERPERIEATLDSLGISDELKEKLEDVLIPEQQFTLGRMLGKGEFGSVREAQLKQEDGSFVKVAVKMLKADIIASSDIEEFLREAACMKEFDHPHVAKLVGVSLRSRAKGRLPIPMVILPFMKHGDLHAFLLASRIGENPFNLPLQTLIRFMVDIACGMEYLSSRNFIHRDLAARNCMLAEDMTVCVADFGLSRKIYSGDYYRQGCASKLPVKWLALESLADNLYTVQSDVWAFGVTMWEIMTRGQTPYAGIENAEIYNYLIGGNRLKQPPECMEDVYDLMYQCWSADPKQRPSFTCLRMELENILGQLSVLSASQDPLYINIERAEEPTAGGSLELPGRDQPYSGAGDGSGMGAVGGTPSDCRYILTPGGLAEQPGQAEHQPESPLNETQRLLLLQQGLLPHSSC

Chain of TEK (TIE2) (Q02763 23-1124): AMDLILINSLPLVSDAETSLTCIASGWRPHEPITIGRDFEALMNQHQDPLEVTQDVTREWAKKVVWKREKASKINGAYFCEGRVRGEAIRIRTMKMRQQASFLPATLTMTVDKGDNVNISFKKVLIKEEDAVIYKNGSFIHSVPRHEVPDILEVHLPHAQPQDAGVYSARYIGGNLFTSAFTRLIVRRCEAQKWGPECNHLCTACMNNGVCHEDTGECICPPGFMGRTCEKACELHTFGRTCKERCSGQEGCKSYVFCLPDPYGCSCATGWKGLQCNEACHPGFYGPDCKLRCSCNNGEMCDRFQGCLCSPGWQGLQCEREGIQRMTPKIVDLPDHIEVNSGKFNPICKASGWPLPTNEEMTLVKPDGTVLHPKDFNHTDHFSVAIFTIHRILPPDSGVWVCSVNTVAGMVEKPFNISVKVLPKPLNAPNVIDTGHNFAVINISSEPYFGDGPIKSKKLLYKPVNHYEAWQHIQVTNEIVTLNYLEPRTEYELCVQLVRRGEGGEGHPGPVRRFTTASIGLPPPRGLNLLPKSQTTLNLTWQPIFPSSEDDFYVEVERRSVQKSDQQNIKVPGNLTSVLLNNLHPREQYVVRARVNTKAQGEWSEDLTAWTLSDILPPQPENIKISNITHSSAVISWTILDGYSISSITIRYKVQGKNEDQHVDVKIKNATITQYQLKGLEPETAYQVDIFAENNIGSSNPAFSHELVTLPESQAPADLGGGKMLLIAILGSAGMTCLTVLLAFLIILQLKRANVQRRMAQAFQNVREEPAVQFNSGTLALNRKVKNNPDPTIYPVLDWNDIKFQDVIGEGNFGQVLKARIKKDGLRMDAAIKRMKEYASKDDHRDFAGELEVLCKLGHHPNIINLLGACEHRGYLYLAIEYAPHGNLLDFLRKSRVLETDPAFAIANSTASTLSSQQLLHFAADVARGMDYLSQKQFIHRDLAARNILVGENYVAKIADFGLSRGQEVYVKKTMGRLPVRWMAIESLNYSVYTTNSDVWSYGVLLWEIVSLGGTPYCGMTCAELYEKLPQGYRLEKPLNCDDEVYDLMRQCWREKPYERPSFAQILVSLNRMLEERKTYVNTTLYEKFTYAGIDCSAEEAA
Chain of VEGFR2 (P35968 20-1356): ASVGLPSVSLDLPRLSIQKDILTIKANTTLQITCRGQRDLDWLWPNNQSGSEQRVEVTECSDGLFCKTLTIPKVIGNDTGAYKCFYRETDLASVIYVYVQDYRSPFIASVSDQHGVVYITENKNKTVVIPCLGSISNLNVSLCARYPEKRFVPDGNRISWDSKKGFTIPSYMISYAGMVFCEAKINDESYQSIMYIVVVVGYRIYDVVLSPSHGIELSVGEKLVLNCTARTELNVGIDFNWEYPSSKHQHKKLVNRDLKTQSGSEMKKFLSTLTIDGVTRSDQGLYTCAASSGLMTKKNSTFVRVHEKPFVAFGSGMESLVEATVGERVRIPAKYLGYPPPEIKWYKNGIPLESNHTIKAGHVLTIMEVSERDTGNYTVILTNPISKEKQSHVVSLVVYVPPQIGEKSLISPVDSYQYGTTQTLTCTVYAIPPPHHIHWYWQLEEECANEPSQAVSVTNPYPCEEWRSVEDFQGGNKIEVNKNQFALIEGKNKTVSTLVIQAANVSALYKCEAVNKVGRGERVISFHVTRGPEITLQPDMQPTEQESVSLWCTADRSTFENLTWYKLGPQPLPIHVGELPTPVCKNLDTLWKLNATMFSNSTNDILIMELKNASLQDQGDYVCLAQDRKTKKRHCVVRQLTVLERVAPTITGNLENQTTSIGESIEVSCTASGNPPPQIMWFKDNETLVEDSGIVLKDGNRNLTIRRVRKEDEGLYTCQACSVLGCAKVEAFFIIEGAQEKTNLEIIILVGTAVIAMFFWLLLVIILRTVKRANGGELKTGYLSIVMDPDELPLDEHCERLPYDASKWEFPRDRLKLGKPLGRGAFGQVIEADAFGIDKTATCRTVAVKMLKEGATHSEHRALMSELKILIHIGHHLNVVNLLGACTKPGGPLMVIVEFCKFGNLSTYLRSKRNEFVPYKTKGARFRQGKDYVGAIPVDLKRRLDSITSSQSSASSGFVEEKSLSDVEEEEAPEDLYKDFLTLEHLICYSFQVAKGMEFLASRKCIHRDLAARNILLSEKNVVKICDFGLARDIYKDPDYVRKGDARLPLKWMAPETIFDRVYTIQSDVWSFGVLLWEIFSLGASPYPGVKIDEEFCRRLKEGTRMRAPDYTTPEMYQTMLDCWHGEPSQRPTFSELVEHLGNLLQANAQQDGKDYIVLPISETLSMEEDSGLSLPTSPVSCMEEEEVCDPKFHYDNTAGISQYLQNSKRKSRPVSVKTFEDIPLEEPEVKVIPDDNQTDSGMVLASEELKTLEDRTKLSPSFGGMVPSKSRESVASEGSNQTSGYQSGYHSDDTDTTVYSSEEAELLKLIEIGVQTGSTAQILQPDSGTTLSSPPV
Chain of MST1R (Q04912 25-1400): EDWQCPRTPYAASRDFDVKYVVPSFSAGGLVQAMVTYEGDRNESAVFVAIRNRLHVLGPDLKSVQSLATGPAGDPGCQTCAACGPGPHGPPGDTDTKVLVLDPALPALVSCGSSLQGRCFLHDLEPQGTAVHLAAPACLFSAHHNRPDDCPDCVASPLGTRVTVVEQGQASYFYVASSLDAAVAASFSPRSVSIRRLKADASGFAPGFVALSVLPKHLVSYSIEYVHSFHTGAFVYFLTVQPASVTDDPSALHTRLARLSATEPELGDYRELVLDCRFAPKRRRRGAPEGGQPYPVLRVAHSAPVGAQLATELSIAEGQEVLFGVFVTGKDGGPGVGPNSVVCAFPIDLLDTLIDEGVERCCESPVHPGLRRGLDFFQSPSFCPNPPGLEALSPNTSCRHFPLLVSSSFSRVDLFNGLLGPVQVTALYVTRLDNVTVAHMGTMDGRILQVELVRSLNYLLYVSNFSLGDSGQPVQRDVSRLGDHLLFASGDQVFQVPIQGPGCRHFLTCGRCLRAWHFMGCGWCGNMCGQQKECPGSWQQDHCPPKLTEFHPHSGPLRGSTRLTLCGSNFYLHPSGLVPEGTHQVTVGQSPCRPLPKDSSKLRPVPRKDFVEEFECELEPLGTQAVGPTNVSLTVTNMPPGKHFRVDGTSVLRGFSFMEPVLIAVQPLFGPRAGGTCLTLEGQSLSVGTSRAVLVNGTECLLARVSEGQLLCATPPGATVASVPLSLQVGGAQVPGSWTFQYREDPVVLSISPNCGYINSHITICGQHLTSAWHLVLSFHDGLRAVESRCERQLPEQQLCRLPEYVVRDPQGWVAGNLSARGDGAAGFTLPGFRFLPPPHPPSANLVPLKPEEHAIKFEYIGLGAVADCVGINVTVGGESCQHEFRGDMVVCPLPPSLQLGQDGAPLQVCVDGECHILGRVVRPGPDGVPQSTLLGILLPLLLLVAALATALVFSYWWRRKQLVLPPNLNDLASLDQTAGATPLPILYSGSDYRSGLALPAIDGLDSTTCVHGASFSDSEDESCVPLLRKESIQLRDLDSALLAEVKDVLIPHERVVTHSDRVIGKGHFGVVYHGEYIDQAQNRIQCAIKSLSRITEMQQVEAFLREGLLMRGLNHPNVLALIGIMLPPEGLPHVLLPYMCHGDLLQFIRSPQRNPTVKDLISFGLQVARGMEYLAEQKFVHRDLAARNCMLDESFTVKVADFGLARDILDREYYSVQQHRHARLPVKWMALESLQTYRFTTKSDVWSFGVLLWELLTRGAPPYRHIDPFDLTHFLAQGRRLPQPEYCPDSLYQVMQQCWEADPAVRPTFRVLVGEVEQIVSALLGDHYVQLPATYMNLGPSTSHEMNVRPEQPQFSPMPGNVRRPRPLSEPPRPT

## Cc1ccc(C(=O)Nc2ccc(Oc3cc4cn[nH]c4cc3-c3cn[nH]c3)c(F)c2)c(=O)n1-c1ccc(F)cc1 [M1]
[1]
  % Inhibition at 0.2 μM, TEK (TIE2): 100%
[2]
  % Inhibition at 0.2 μM, VEGFR2: 72%
[3]
  % Inhibition at 0.2 μM, MST1R: 95%
[4]
  p-eIF4E reduction (MKNK1/2 inhibition, in words): potent inhibition
[5]
  % Inhibition at 0.2 μM, MERTK: 99%
[6]
  % Inhibition at 0.2 μM, TYRO3: 100%

## Cn1ncc2cc(Oc3ccc(NC(=O)c4ccc(CO)n(-c5ccc(F)cc5)c4=O)cc3F)c(-c3cn[nH]c3)cc21 [M2]
[1]
  % Inhibition at 0.2 μM, TEK (TIE2): 100%
[2]
  % Inhibition at 0.2 μM, VEGFR2: 43%
[3]
  % Inhibition at 0.2 μM, MST1R: 88%
[4]
  p-eIF4E reduction (MKNK1/2 inhibition, in words): slightly less so
[5]
  % Inhibition at 0.2 μM, MERTK: 93%
[6]
  % Inhibition at 0.2 μM, TYRO3: 97%

## Cc1ccc(C(=O)Nc2ccc(Oc3cc4cnn(C)c4cc3-c3cn[nH]c3)c(F)c2)c(=O)n1-c1ccc(F)cc1 [Merestinib]
[1]
  % Inhibition at 0.2 μM, TEK (TIE2): 99%
[2]
  % Inhibition at 0.2 μM, VEGFR2: 63%
[3]
  % Inhibition at 0.2 μM, MST1R: 96%
[4]; 3.9-1000 nM
  Concentration giving near-complete inhibition of p-eIF4E: 62.5 nM
[4]
  p-eIF4E reduction (MKNK1/2 inhibition, in words): potent inhibition
[5]; read-out: % Inhibition at 0.2 μM, MERTK
  inhibition at 0.2 µM: 96%
[6]
  % Inhibition at 0.2 μM, TYRO3: 99%
